Literature values as cited in patent US6972133B1, “Degradable animal chewing article possessing enhanced safety, durability and mouth-feel” (Seefar Technologies, Inc., priority 1999, dated 2005).

Columns and labels:
[1] = tested on: fungi (including yeast) and algae; details: most active against fungi (including yeast) and algae

Structure (SMILES) | anti-microbial activity [1] | LD50 oral toxicity (dogs) [mg/kg] | solubility in dilute alkali solution (dilute alkali solution) | solubility in ethanol (ethanol) | solubility in water (water, unmodified triclosan)
Cc1ccc(S(=O)(=O)C(I)I)cc1 [DIMTS, diiodomethyl-p-tolylsulphone] | broad spectrum of anti-microbial activity | – | – | – | –
Oc1cc(Cl)ccc1Oc1ccc(Cl)cc1Cl [triclosan, 2,4,4″-trichloro-2-hydroxydiphenylether] | – | > 5000 | sparingly soluble | soluble | insoluble
